Laboratory results as given in PMC7836013, “Characterization of Formononetin Sulfonation in SULT1A3 Overexpressing HKE293 Cells: Involvement of Multidrug Resistance-Associated Protein 4 in Excretion of Sulfate” (Frontiers in Pharmacology, 2021).
Structures can show the parent of a compound that is named as a salt.

Key:
MRP4 [1] = molecular target: T1, MRP4 (Homo sapiens, UniProt O15439); assay: Effect of shRNA-mediated MRP4 knockdown on formononetin disposition in HEK-SULT1A3 cells; format: cell-based; details: shMRP4 vs scramble, formononetin 2.5 and 10 μM
T1 construct: MRP4 was the only expressed MRPs family transporter in HEK-SULT1A3 cells; endogenous in cells; host or cells: HEK-SULT1A3 cells (HEK293 stably expressing SULT1A3)
T1 sequence (O15439 1-1325): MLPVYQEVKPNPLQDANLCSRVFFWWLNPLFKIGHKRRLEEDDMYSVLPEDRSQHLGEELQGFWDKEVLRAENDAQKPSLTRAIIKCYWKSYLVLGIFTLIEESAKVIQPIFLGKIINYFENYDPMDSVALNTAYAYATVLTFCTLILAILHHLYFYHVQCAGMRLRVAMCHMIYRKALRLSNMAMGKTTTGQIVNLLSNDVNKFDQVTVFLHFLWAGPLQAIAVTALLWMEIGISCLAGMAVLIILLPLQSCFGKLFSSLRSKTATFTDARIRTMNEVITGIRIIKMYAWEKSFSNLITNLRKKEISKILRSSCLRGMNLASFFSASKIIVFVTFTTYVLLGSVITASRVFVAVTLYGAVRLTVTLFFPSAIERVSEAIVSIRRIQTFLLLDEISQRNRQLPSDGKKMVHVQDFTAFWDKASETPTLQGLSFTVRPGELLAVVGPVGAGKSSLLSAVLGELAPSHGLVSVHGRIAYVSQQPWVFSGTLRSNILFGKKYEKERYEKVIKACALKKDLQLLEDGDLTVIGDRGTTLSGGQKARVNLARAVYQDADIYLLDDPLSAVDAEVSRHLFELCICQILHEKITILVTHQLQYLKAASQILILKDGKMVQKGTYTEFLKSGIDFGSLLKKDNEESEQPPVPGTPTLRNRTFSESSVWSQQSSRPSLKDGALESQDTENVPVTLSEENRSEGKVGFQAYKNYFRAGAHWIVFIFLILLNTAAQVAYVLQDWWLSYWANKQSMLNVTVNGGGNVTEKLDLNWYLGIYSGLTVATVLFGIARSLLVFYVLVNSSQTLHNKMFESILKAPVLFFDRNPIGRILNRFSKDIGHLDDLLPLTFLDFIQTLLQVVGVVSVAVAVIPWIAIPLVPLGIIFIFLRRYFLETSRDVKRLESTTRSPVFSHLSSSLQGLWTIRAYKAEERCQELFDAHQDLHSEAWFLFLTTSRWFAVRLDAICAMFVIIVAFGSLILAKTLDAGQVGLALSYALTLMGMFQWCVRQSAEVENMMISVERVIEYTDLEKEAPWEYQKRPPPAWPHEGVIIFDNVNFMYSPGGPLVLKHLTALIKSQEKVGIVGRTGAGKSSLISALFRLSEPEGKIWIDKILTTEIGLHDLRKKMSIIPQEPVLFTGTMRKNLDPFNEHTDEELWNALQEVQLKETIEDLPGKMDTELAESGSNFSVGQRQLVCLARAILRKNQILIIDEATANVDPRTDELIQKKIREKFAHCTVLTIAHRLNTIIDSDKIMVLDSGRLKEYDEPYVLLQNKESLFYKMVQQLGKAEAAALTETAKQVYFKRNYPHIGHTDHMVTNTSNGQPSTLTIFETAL
Description: The sulfate excretion experiments were conducted using HEK-SULT1A3 cells model. In brief, HEK-SULT1A3 cells were washed with Hank's Balanced Salt Solution (HBSS) buffer (37°C, pH = 7.2) for three times. Then the cells were incubated with 2 ml HBSS buffer containing different concentrations of formononetin (final concentrations of 2.5 μM or 10 μM) at 37°C. 200 μL of incubation medium was sampled from each well at various times (0.5, 1.0, 1.5, and 2.0 h). Meanwhile, 200 μL of dosing solution was added immediately. The extracted samples were mixed with 100 μL ice-cold acetonitrile and vortexed for 1 min. The supernatant after centrifugation (15,000 g; 15 min) was injected into HPLC for analysis. After the last samples were taken, cells were collected into 400 μL ice-cold MeOH:H2O (1:1, v/v) and processed to measure the intracellular amount of formononetin sulfate. The excretion rate (ER) of intracellular sulfate was calculated exactly as described in our publications (Liu et al., 2018). The apparent efflux clearance (CLef,app) was derived as the excretion rate divided by the intracellular concentration of sulfate (Ci). Ci was determined by dividing intracellular amount of sulfate at 2 h by intracellular volume. The intracellular volume of HEK293 cells was measured using sulfanilamide as described ([Zhou et al., 2015]). […] Further, the fraction of dose metabolized (fmet), an indicator of the extent of drug sulfonation, was calculated according to Eq. 2. fmet=excreted sulfate+intracellular sulfate/total dosed aglycone (2) The cells were collected and lysed in RIPA Lysis Buffer (Beyotime, Shanghai) in advance. After quantified using BCA protein assay kit (Thermo Scientific, Waltham, Massachusetts), the cells samples or individual human intestine S9 fractions were analyzed by sodium dodecyl sulfate polyacrylamide gel electrophoresis (10% acrylamide gels) and transferred to polyvinylidene fluoride membranes ([…], Millipore, Bedford, MA). […] And then the protein bands were scanned in grayscale and subjected to semiquantitative analysis using Quantity One software.

HEK-SULT1A3 cell lysate [2] = molecular target: T2, HEK-SULT1A3 cell lysate (Homo sapiens, UniProt P0DMM9); assay: Effect of chemical inhibitors on formononetin sulfonation in HEK-SULT1A3 cell lysate; format: in vitro ADME; details: inhibitor 5–20 μM, formononetin 2.5 and 10 μM, p > 0.05
T2 construct: expressed in transfected cells; cell lysate used

MRP4 [3] = molecular target: T1, MRP4; assay: Effect of MK-571 on formononetin sulfate excretion in HEK-SULT1A3 cells; format: cell-based
Description: The sulfate excretion experiments were conducted using HEK-SULT1A3 cells model. In brief, HEK-SULT1A3 cells were washed with Hank's Balanced Salt Solution (HBSS) buffer (37°C, pH = 7.2) for three times. Then the cells were incubated with 2 ml HBSS buffer containing different concentrations of formononetin (final concentrations of 2.5 μM or 10 μM) at 37°C. 200 μL of incubation medium was sampled from each well at various times (0.5, 1.0, 1.5, and 2.0 h). Meanwhile, 200 μL of dosing solution was added immediately. The extracted samples were mixed with 100 μL ice-cold acetonitrile and vortexed for 1 min. The supernatant after centrifugation (15,000 g; 15 min) was injected into HPLC for analysis. After the last samples were taken, cells were collected into 400 μL ice-cold MeOH:H2O (1:1, v/v) and processed to measure the intracellular amount of formononetin sulfate. The excretion rate (ER) of intracellular sulfate was calculated exactly as described in our publications (Liu et al., 2018). The apparent efflux clearance (CLef,app) was derived as the excretion rate divided by the intracellular concentration of sulfate (Ci). Ci was determined by dividing intracellular amount of sulfate at 2 h by intracellular volume. The intracellular volume of HEK293 cells was measured using sulfanilamide as described ([Zhou et al., 2015]).

HEK-SULT1A3 cell lysate [4] = molecular target: T2, HEK-SULT1A3 cell lysate; assay: Formononetin sulfonation enzyme kinetics in HEK-SULT1A3 cell lysate; format: in vitro ADME; details: Michaelis-Menten, mean ± SD (n = 3)
Description: Enzyme kinetic of formononetin incubated with recombinant human SULT1A3 enzyme (rSULT1A3) was evaluated. The reaction was activated after the coenzyme PAPS (which provides sulfonate group to the substrates) was added. The incubation reaction was conducted in 200 μL potassium phosphate buffer (50 mM, pH 7.4) at 37°C, containing SULT1A3 enzyme (0.1 mg/ml), formononetin (0.16–40 μM), and PAPS (a final concentration of 0.10 mM). After incubation for 120 min, the reaction was terminated by adding 100 μL ice-cold acetonitrile. Then the samples were vortexed and centrifuged at 15,000 g for 15 min. The supernatant was analyzed by HPLC for sulfate quantification. All incubations were performed in triplicate. Preliminary experiments were performed to ensure that the rates of sulfation were determined under linear conditions with respect to incubation time and protein concentration.
The sulfonation rates of formononetin at different concentrations were determined according to the sulfonation assay protocol. […] The intrinsic clearance (CLint) was calculated by Vmax/Km.
Quantification of formononetin sulfate was performed using Agilent 1,260 Infinity II HPLC system with a ZORBAX SB-C18 column (4.6 × 250 mm, 5 μm; Agilent). […] The samples were analyzed using a gradient of ammonium acetate (2.5 mM) in water (mobile phase A) vs. acetonitrile (mobile phase B) at a flow rate of 1.0 ml/min. […]

[5] = parameters: method as in Singh and Wahajuddin, 2011; details: ref Singh and Wahajuddin, 2011; cited from earlier work
[6] = MK-571 5–20 μM, formononetin 2.5 μM, p < 0.001
[7] = MK-571 5–20 μM, formononetin 10 μM, p < 0.001

T2 sequence (P0DMM9 whole entry): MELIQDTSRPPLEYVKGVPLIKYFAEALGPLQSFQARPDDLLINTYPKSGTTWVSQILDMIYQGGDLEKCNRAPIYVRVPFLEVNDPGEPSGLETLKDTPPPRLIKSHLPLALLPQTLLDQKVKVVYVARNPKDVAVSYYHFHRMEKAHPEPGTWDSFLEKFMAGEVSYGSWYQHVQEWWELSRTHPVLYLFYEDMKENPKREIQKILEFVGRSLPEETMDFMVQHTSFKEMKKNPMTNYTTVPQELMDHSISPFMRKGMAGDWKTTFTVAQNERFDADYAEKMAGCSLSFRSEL

COc1ccc(-c2coc3cc(OS(=O)(=O)O)ccc3c2=O)cc1 [F-O-S, formononetin sulfate]
Decrease in CLef,app of F-O-S on MRP4 knockdown (MRP4 [1]; p < 0.01): > 50.6%
Reduction in sulfate excretion rates on MRP4 knockdown (MRP4 [1]; p < 0.01): > 32.8%
Elevation in intracellular amounts of F-O-S on MRP4 knockdown (MRP4 [1]; p < 0.05): > 127.4%

CN(C)C(=O)CCSC(SCCC(=O)O)c1cccc(/C=C/c2ccc3ccc(Cl)cc3n2)c1 (stereo not drawn) [MK-571]
Effect of inhibitor on formononetin sulfonation (generation of F-O-S) (HEK-SULT1A3 cell lysate [2]): did not alter
Decrease of CLef,app of F-O-S (MRP4 [3]; [6]): 85.3%–98.0%
Reduction in excretion of F-O-S (MRP4 [3]; [6]): 79.1%–94.6%
Decrease of excretion rates of F-O-S (MRP4 [3]; [7]): 79.8%–95.7%
Increase of intracellular level of F-O-S (MRP4 [3]; [7]): 160.6%–188.8%
Reduction of CLef,app of F-O-S (MRP4 [3]; [7]): 87.3%–97.7%
Suppression of excretion of formononetin sulfate (MRP4 [3]; MK-571 at 20 μM): > 94%

COc1ccc(-c2coc3cc(O)ccc3c2=O)cc1 [formononetin, Formononetin]
Vmax of formononetin sulfonation (HEK-SULT1A3 cell lysate [4]): 13.94 ± 0.83 pmol/min/mg
Bioavailability of unchanged formononetin [5]: approximately 3%
